Values joined by “and” are separate entries in the source; they are usually repeats but may differ in a detail not shown here. Equal entries are not always repeated.
Legend:
HL-60 cells [1] = test: Cell cycle analysis by flow cytometry (propidium iodide); type: cell-based, human; conditions: for cell cycle, G1, mean / cell cycle, G2/M, mean / cell cycle, S, mean: mean of n=2; for cell cycle distribution, G1 / cell cycle distribution, G2 / cell cycle distribution, G2/M: HL-60, 20 h, mean ± SD, n = 2
Method in brief: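 HL-60 (CCL 240) cells were grown in RPMI 1640 with 20% FBS, fixed and stored at −20 °C for 2–3 days. RNase A was applied at 37 °C for 10 min, then propidium iodide for 30 min at RT in the dark. Cell-cycle distribution was determined by flow cytometry from 10,000 gated cells.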

WM-115 cells = test: MTT cytotoxicity assay, WM-115; type: cell-based, human; conditions: Homo sapiens, WM-115, 48 h, MTT, 46 h + 2 h incubation
Experimental: (§1) The first stage of the study used the MTT viability test to determine the cytotoxicity of ten compounds, i.e., 3-arylidenechromanone, 3-arylideneflavanone, spirochromanone and spiro- flavanone analogues, against four human cancer cell lines: HL-60, NALM-6, WM-115 and COLO-205.
(§2) Cytotoxicity was tested against human skin melanoma cells (WM-115, ECACC, Salisbury, UK), two human leukemia cell lines, viz. promyelocytic leukemia (HL-60) and lymphoblastic leukemia (NALM-6), and human colon adenocarcinoma cells (COLO-205). The cell lines COLO-205, WM-115 and HL-60 used in this work came from the ATCC American Type Culture Collection (Manassas, VA, USA), whereas the NALM-6 cell line was purchased from the German Collection of Microorganisms and Cell Cultures (Braunschweig, Germany). The leukaemia cells and colon adenocarcinoma were cultured in RPMI 1640 medium (Invitrogen, Grand Island, NY, USA) supplemented with 10% fetal bovine serum (FBS; Invitrogen) and gentamicin (25 µg/mL; KRKA, Novo Mesto, Slovenia). For melanoma WM-115 cells, Dulbecco’s minimal essential medium (DMEM; Invitrogen) was used. All cell lines were cultured at 37 °C in a humidified atmosphere of 5% CO2 in air.
(§3) For all experiments, the studied compounds were dissolved in DMSO (Sigma-Aldrich) and were further diluted in culture medium to obtain <0.1% DMSO concentration. In each experiment, controls with and without 0.1% DMSO were performed. The cytotoxicity of all compounds and of the reference compounds 4-chromanone and 3-benzylideneflavanone was determined by the MTT assay, i.e., 3-(4,5-dimethylthiazol-2-yl)-2,5-diphenyltetrazolium bromide (Sigma, St. Louis, MO, USA), which measures cellular dehydrogenase activity. Exponentially growing cells were seeded a day before the experiment onto a 96-well microplates (Nunc, Roskilde, Denmark) at a density up to 6–8 × 10^3 cells/well (depending on the cell line). Subsequently, various concentrations of the studied compounds freshly prepared in DMSO and diluted with complete culture medium were added. All compounds were tested for their cytotoxicity at a final concentration of 10^−7–10^−3 M. After 46 h of incubation with the studied compounds, the cells were treated with the MTT reagent and incubation was continued for another two hours. MTT – formazan crystals were dissolved in 20% sodium dodecyl sulphate (SDS, Sigma-Aldrich) and 50% DMF (Sigma-Aldrich) at pH 4.7; following this, absorbance was read at 570 nm on a multifunctional Victor ELISA-plate reader (Perkin Elmer, Turku, Finland). The IC50 values, i.e., the concentration of the test compound required to reduce the cell survival fraction to 50% of controls, were calculated from concentration-response curves and used as a measure of the sensitivity of the cells to a given treatment. As a control, cultured cells were grown in the absence of drugs. The data points represent the means of at least five to ten repeats ± standard deviation (S.D.).

erythrocytes = test: Red blood cell morphology (phase-contrast microscopy); type: cell-based; conditions: 2% erythrocyte suspension, 37 °C, 1 h, phase contrast 400×
Experimental: Studies on erythrocyte morphology complement the erythrotoxicity studies because they provide information on potential immediate interactions of the tested compounds with the erythrocyte lipid bilayer, and the possibility of creating pathological forms of erythrocytes, which are not able to carry oxygen. The effects of the synthesized compounds, and the two reference compounds chromanone and flavanone, on the morphology of erythrocytes is shown in Figure 6. Briefly, 2% RBC suspension was incubated with 0.9% NaCl (control samples) or tested compounds at various concentrations corresponding to their activity towards cancer cell lines.
A 2% erythrocyte suspension was incubated at 37 °C for one hour with various concentrations of synthesized compounds. The morphology of the RBCs was examined by means of a phase contrast Opta-Tech inverted microscope, at 400× magnification, equipped with software (OptaView 7) for image analysis.

[2] = Lipophilicity (logP) by RP-TLC; conditions: RP-18 F254S TLC plates
HL-60 cells [3] = test: MTT cytotoxicity assay, HL-60; type: cell-based, human; conditions: Homo sapiens, HL-60, 48 h, MTT, 46 h + 2 h incubation
Experimental: as §1, §2, §3

[4] = Figure S3, HL-60, 0.5 × IC50 (µM: quercetin 29, 1 1.5, 7 18, 10 4.7, 11 4.5, 12 6)
[5] = Figure S3, HL-60, 0.5 × IC50, each of two repetitions
[6] = Figure S3, HL-60, 1 × IC50 (µM: quercetin 58, 1 3, 7 35, 10 9.4, 11 9, 12 12)
[7] = Figure S3, HL-60, 1 × IC50, each of two repetitions
[8] = 0.5 × IC50 (µM: quercetin 29, 2 1.5, 7 18, 12 6, 11 4.5, 10 4.7)
[9] = 1 × IC50 (µM: quercetin 58, 2 3, 7 35, 12 12, 11 9, 10 9.4)

O=C1/C(=C/c2ccccc2)COc2ccccc21 [Compound 7, (E)-3-benzylidene-chroman-4-one]
cell cycle, G1, mean (HL-60 cells [1]; [4]): 57,71%
cell cycle, G2/M, mean (HL-60 cells [1]; [4]): 20,82%
cell cycle, S, mean (HL-60 cells [1]; [4]): 21,48%
cell cycle, G1, single repetitions (HL-60 cells [1]; [5]): 52,64% and 62,77%
cell cycle, G2/M, single repetitions (HL-60 cells [1]; [5]): 18,44% and 23,20%
cell cycle, S, single repetitions (HL-60 cells [1]; [5]): 18,79% and 24,16%
cell cycle, G1, mean (HL-60 cells [1]; Figure S3, HL-60, 1 × IC50 (µM in parenthesis: quercetin 58, 1 3, 7 35, 10 9.4, 11 9, 12 12)): 50,37%
cell cycle, G2/M, mean (HL-60 cells [1]; [6]): 26,09%
cell cycle, S, mean (HL-60 cells [1]; [6]): 23,55%
cell cycle, G1, single repetitions (HL-60 cells [1]; [7]): 51,06% and 49,68%
cell cycle, G2/M, single repetitions (HL-60 cells [1]; [7]): 26,04% and 26,13%
cell cycle, S, single repetitions (HL-60 cells [1]; [7]): 22,89% and 24,20%
cell cycle distribution, G1 (HL-60 cells [1]; [8]): 57.7 ± 7.2%
cell cycle distribution, G2 (HL-60 cells [1]; [8]): 21.5 ± 3.8%
cell cycle distribution, G2/M (HL-60 cells [1]; [8]): 20.8 ± 3.4%
cell cycle distribution, G1 (HL-60 cells [1]; [9]): 50.4 ± 1.0%
cell cycle distribution, G2 (HL-60 cells [1]; [9]): 23.5 ± 0.9%
cell cycle distribution, G2/M (HL-60 cells [1]; [9]): 26.1 ± 0.1%
cells arrested in G2/M phase (HL-60 cells [1]; HL-60, concentrations of IC50 and 0.5 × IC50): 20–26%
IC50 (WM-115 cells): 12.8 ± 1.83 µM
erythrocyte morphology (in words) (erythrocytes): primarily led to echinocytosis, however single anisocytes could also be detected
chromatographic logP [2]: 4.23
IC50 (HL-60 cells [3]): 34.8 ± 2.87 µM
